Drawing on ChEMBL document CHEMBL3393049, “Syntheses and Antituberculosis Activity of 1,3-Benzothiazinone Sulfoxide and Sulfone Derived from BTZ043” (ACS Med Chem Lett, 2015), this text covers MIC for five molecules.

In brackets after ≈: the same amount, converted by molar mass.

For the test, the system named is Mycobacterium tuberculosis variant bovis BCG. As to the kind of experiment: Antimycobacterial activity against Mycobacterium bovis BCG ATCC 35734 assessed as reduction in bacterial growth incubated for 6 days by MABA method. In kind it is functional. The conditions noted are these: ATCC 35734, 144 h.
Turning to `C[C@H]1COC2(CCN(c3nc(=O)c4cc(C(F)(F)F)cc([N+](=O)[O-])c4[s+]3[O-])CC2)O1` (stereo not given in full), the MIC was found to be 0.21 µM (≈ 0.094 µg/mL). As to `C[C@H]1COC2(CCN(C3=NC(=O)c4cc(C(F)(F)F)cc([N+](=O)[O-])c4S3(=O)=O)CC2)O1`, the MIC was greater than 1 µM.

As to `NNC(=O)c1ccncc1` [ISONIAZID], the MIC stood at 0.5 µM (≈ 0.0686 µg/mL). Then `CO[C@H]1/C=C/O[C@@]2(C)Oc3c(C)c(O)c4c(O)c(c(/C=N/N5CCN(C)CC5)c(O)c4c3C2=O)NC(=O)/C(C)=C\C=C\[C@H](C)[C@H](O)[C@@H](C)[C@@H](O)[C@@H](C)[C@H](OC(C)=O)[C@@H]1C` [RIFAMPIN], with 0.02 µM (≈ 0.0165 µg/mL); and `C[C@H]1COC2(CCN(c3nc(=O)c4cc(C(F)(F)F)cc([N+](=O)[O-])c4s3)CC2)O1` [BTZ-043], with less than 0.02 µM.
